Common to all, as to format: cell-based
The subject of experiment [1] is SU-DHL-4 cells (diffuse large B-cell lymphoma). Put plainly: Cell death inducing effect on SU-DHL-4 cells, trypan blue staining. The note with it: SU-DHL-4 (DLBCL), cell viability. As to the method:
SU-DHL-4 cells (diffuse large B-cell lymphoma) were cultured under 5% CO2 at 37° C.
The culture medium used RPMI-1640 medium with 100 μg/mL penicillin, 100 U/mL streptomycin and fetal bovine serum. SU-DHL-4 cells were seeded into 96-well plates and incubated with each concentration of the compounds was added, and cell viability was determined by the trypan blue staining.
(§1) For controls, only 0.5% DMSO (diluted in PBS) used to dissolve the compounds was added. For each concentration, each bar line is indicated by an arrow with the sign “n, a, 1, 2, 3, 4, 5, 6, 7, 8, 9, 10, 11, 12” from left to right. The “1, 3, 5, 7, 9, 11” are omitted from the graph, but the sign “1” shall be indicated by an arrow between the signs “a” and “2”, the sign “3” between the signs “2” and “4”, and other odd numbers shall likewise be indicated by arrows between even numbers before and after.
(§2) The sign “n” is the norathyriol (formula (n)) administration group, the sign “a” is the mangiferin 8a (formula (a)) administration group, the sign “1” is the yk-7 (formula (1)) administration group, the sign “2” is the yk-8-1 (formula (2)) administration group, the sign “3” is the yk-8-3 (formula (3)) administration group, the sign “4” is the M7 (formula (4)) administration group, the sign “5” is the M9 (formula (5)) administration group, the sign “6” is the M11 (formula (6)) administration group, the sign “7” is the M12 (formula (7)) administration group, the sign “8” is the M14 (formula (8)) administration group, the sign “9” is the M15 (formula (9)) administration group, the sign “10” is the M16 (formula (10)) administration group, the sign “11” is the M18 (formula (11)) administration group, the sign “12” is the M19 (formula (12)) administration group, respectively. The IC50 values for each compound is also listed in the upper right corner of the figure.

Experiment [2] concerns CCRF-SB cells (acute lymphocytic leukemia cell line). Put plainly: Cell death inducing effect on CCRF-SB cells, trypan blue staining. The settings on record: CCRF-SB (acute lymphoblastic leukemia), cell viability. The method, then: CCRF-SB cells (acute lymphocytic leukemia cell line) were cultured under 5% CO2 at 37° C. The culture medium used RPMI-1640 medium with 100 μg/mL penicillin, 100 U/mL streptomycin and fetal bovine serum. CCRF-SB cells were seeded into 96-well plates and incubated with each concentration of the compounds was added, and cell viability was determined by the trypan blue staining.
as §1, §2

For a further experiment, the target named is T1, phospho-NIK (Homo sapiens, UniProt Q99558).
T1 construct: Proteins were extracted from these cell suspensions with cell lysate and used as samples; endogenous in cells; host or cells: KMS-28BM (myeloma)
Put plainly: Immunoblotting of phospho-NIK in KMS-28BM cells. The note with it: 72 h, vs control, 1 μM mangiferin 8a/M8, 1 μM norathyriol, 0.5 μM M7, 0.2 μM M9, 5 μM yk-7, 0.5 μM yk-8-3, 100 μM yk-8-1, 0.5 μM M19, M18, M11, 0.005 μM M16, M15, M14, 0.05 μM M12. As to the method: (§3) Immunoblotting was performed on KMS-28BM cells to investigate the inhibitory effect of each compound administration on NIK inhibition and the activation of IKK, NF-κB p52, and NF-κB p65, which are downstream signals of NIK. As a result, inhibition of NIK activation, inhibition of IKK activity, and inhibition of nuclear translocation of NF-κB p52 and NF-κB p65 were observed (FIG. 15 and FIG. 16).
(§4) As a control, compounds untreated KMS-28BM cells were seeded in 150 cm^2 flasks and incubated for 72 h at 37° C. and 5% CO2. KMS-28BM cells were seeded into 150 cm^2 flasks and pre-cultured for 24 h. After incubation, KMS-28BM cells were treated with […], 1 μM norathyriol, 0.5 μM M7 (formula (4)), 1 μM M8 (mangiferin 8a: listed in duplicate), 0.2 μM M9 (formula (5)), 5 μM yk-7 (formula (1)), 0.5 μM yk-8-3 (formula (3)) and 100 μM yk-8-1 (formula (2)) at final concentrations, and incubated for 72 h at 37° C. and 5% CO2. In addition, KMS-28BM cells were also treated with 0.5 μM M19 (formula (12)), 0.5 μM M18 (formula (11)), 0.005 μM M16 (formula (10)), […] (formula (9)), 0.005 μM M14 (formula (8)), 0.05 μM M12 (formula (7)) and […] (formula (6)) at the final concentrations, and incubated for 72 h at 37° C. and 5% CO2. Proteins were extracted from these cell suspensions with cell lysate and used as samples.
(§5) The nucleus and cytoplasmic substrate were separated from the cells using the ProteoExtract (registered trademark) Subcellular Proteome Extraction Kit from Merck Ltd. to extract the cytoplasmic and nuclear fractions.
(§6) After SDS-PAGE, each sample was transferred to a PVDF membrane and examined using anti-phospho-NIK, anti-NIK, anti-phospho-IKK, anti-IKK, anti-P-actin, anti-NF-κB p52 and anti-NF-κB p65 antibody, and anti-Lamin antibody.
(§7) The antibody species is indicated in the vertical direction. Specifically, for anti-phospho-NIK antibody, “Phospho-NIK” was used, for anti-NIK antibody, “NIK” was used, for anti-phospho-IKK antibody, “Phospho-IKK” was used, for anti-IKK antibody, “IKK” was used, for anti-p-actin antibody, “p-actin” was used, for anti-NF-κB p52 antibody, “NF-κB p52 nuclear” was used, for anti-NF-κB p65 antibody, “NF-κB p65 nuclear” was used, and for anti-Lamin antibody, “Lamin” was used.

The subject of another experiment is phospho-IKK. Put plainly: Immunoblotting of phospho-IKK in KMS-28BM cells. The note with it: 72 h, vs control, same concentrations as for phospho-NIK (0.005-100 μM). The method, then:
as §3, §4, §5, §6, §7

A further experiment has as its system CD138. Put plainly: CD138 expression in L363 cells, flow cytometry. The settings on record: 10 days, concentration lower than the IC50 (0.005-50 μM), compared to the positive control. As to the method:
As a control, compounds untreated L363 cells were seeded in 75 cm^2 flasks and incubated for 10 days at 37° C. and 5% CO2. L363 cells were seeded into 75 cm^2 flasks and pre-cultured for 4 h. After incubation, L363 cells were treated with 0.1 μM M7, 0.05 μM M9, 0.1 μM yk-7, 0.1 μM yk-8-3, 50 μM yk-8-1, 0.1 μM M11, 0.01 μM M12, 0.005 μM M14, 0.005 μM M15, 0.005 μM M16, 1 μM M18, and 1 μM M19 at final concentrations, and incubated for 10 days at 37° C. and 5% CO2. This added amount is a concentration lower than the IC50 of the above compounds for L363 cells. After 10 days of incubation, cells were stained with anti-CD138 antibody, a marker of multiple myeloma grade, and CD138 expression was measured using BD LSRFortessa.
Results are shown in FIG. 25, FIG. 26, FIG. 27 and FIG. 28. The horizontal axis represents the expression level of CD138 and the vertical axis represents the number of cells.

Data on four molecules can be found in patent US20260200903A1, “PHARMACEUTICAL COMPOSITION FOR AMELIORATING MALIGNANT DISEASES” (KINKI UNIVERSITY, priority 2020, published 2026).

Some results are limits rather than exact numbers.

T1 sequence (Q99558 whole entry): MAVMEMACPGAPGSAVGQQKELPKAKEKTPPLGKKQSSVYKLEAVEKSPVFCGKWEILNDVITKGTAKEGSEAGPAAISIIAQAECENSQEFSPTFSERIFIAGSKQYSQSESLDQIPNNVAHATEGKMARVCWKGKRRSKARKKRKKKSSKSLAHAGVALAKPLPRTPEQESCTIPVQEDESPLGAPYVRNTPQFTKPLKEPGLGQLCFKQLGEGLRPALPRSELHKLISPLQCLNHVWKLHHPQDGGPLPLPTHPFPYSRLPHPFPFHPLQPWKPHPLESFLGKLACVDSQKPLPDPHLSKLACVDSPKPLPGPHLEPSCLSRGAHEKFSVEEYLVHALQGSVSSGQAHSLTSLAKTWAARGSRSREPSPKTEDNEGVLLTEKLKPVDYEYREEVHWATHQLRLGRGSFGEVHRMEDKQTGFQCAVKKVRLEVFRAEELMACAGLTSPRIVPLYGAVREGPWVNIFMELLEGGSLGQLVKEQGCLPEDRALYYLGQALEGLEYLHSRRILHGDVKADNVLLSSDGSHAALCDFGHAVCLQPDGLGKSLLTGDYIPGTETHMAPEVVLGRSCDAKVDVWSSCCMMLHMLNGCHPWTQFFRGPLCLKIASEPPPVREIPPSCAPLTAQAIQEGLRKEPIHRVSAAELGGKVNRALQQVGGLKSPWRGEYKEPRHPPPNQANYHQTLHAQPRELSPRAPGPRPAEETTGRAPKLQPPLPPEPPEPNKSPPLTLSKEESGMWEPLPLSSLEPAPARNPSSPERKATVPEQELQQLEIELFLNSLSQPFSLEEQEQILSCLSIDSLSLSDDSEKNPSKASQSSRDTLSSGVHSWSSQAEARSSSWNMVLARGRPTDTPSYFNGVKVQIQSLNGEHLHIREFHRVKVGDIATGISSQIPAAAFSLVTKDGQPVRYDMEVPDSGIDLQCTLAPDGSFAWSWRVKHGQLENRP

For `C=CCOc1cc(O)cc2oc3cc(O)c(O)cc3c(=O)c12` [Compound M19, 1-allyloxy-3,6,7-trihydroxy-9H-xanthen-9-one], the IC50 in experiment [1] (Homo sapiens) was 17400 nM; in experiment [2] (Homo sapiens), 18200 nM. For the same molecule, the “phospho-NIK band density (anti-phospho-NIK antibody)” value (shortened to “phospho-NIK band density”) at phospho-NIK was “decrease in band density”. Also, the “phospho-IKK band density (anti-phospho-IKK antibody)” value (“phospho-IKK band density” for short) in the experiment with phospho-IKK is “decrease in band density”. In the experiment on CD138, the CD138 expression levels result is given as “markedly reduced”.

For the molecule `CCCCC(=O)OC[C@H]1O[C@@H](c2c(O)cc3oc4cc(O)c(O)cc4c(=O)c3c2O)[C@H](OC(=O)CCCC)[C@@H](OC(=O)CCCC)[C@@H]1OC(=O)CCCC` [yk-7, 2′,3′,4′,6′-tetra-O-valerylmangiferin], the IC50 is 288 nM in experiment [1] (Homo sapiens) and 1840 nM in experiment [2] (Homo sapiens). The “phospho-NIK band density” value at phospho-NIK is reported as “decrease in band density”. Besides, the “phospho-IKK band density” value with phospho-IKK was “decrease in band density”. In addition, the CD138 expression levels result with CD138 is “markedly reduced”.

Turning to `CCCCC(=O)OC[C@H]1O[C@@H](c2c(OC(=O)CCCC)cc3oc4cc(OC(=O)CCCC)c(OC(=O)CCCC)cc4c(=O)c3c2OC(=O)CCCC)[C@H](OC(=O)CCCC)[C@@H](OC(=O)CCCC)[C@@H]1OC(=O)CCCC` [yk-8-1, 1,3,2′,3′,4′,6,6′,7-octa-O-valerylmangiferin], the concentration for half-maximal inhibition (IC50) in experiment [1] and in experiment [2] was over 100000 nM each time. Moreover, the “phospho-NIK band density” value on phospho-NIK was “decrease in band density”. In addition, the “phospho-IKK band density” value with phospho-IKK is “decrease in band density”. Also, the CD138 expression levels entry with CD138 is “markedly reduced”.

For `CCCCC(=O)OC[C@H]1O[C@@H](c2c(O)cc3oc4cc(O)c(O)cc4c(=O)c3c2OC(=O)CCCC)[C@H](OC(=O)CCCC)[C@@H](OC(=O)CCCC)[C@@H]1OC(=O)CCCC` [yk-8-3, 1,2′,3′,4′,6-penta-O-valerylmangiferin], the 50% inhibitory concentration (IC50) in experiment [1] (Homo sapiens) amounted to 346 nM; in experiment [2] (Homo sapiens) it was 2410 nM. Further, the “phospho-NIK band density” value on phospho-NIK is given as “decrease in band density”. Moreover, the “phospho-IKK band density” value in the experiment on phospho-IKK was “decrease in band density”. In addition, in the experiment on CD138, the CD138 expression levels result is given as “markedly reduced”.
